Test results as given in patent publication US10821091B2, “Retinoid compositions and methods of increasing immune cell-mediated killing of IDH mutant cancer cells” (UNIVERSITY OF PITTSBURGH—OF THE COMMONWEALTH SYSTEM OF …, priority 2017, dated 2020).

Key:
[1] = mouse, in vivo
Experimental: Mice. 6-8 week old Balb/c nude mice (CAnN.Cg-Foxn1nu/Crl) were purchased from Charles River Laboratories. Mice were injected with 10^6 IDH WT or mutant primary glioma cells sub-cutaneously in the right flank. When the tumors were about 25 mm^2, ATRA treatment was started. 10 mg/Kg ATRA was administered to mice intra-peritoneally (i.p.) every alternate day until termination of the experiment. DMSO-treated mice were used as controls. The mice were monitored for signs of drug toxicity such as weight-loss, lethargy, skin lesions and diarrhea. The tumors were measured every 3 days, and the mice were sacrificed when the tumors were about 400 mm^2. For NK depletion experiments, 6-week old B6 nude mice (B6.Cg-Foxn1nu/J) were purchased from The Jackson Laboratory. NK depletion was performed by injecting mice with 200 μg of anti-NK1.1 antibody (Biolegend) i.p. on the day ATRA treatment was started. Mice injected with 200 μg of an isotype antibody were used as controls. Mice were bled and evaluated for circulating NKs by flow cytometry.
Retinoic acid has been used as a chemotherapeutic agent in a wide variety of cancers, in pre-clinical as well as clinical applications. 13-cis-RA is the most common form of RA used in clinics, and is effective in a variety of neoplasms. Therefore, the efficacy of 13-cis RA was compared with ATRA and Bexarotene (a synthetic retinoic acid analogue) in IDH mutant gliomas.

[2] = system: RBP1-transduced IDH mutant cells; assay: RBP1 overexpression with retinol: NK cytotoxicity and gene expression; type: cell-based, human
Experimental: For RBP1 overexpression studies, IDH mutant glioma cells were transduced with RBP1 expressing lentiviral vectors (Origene Inc) for 3 hours. The cells were maintained in CM containing 10 μg/ml Puromycin to select for lentivirus-transduced cells. Cells transduced with a mock lentiviral vector were used as controls.
NK cytotoxicity assay. The flow cytometric CFSE/7-AAD cytotoxicity assay was performed as previously described with slight modifications. Astrocytes or Glioma cells (5×10^5) were labeled with 500 nM CFSE (from a 1 mM stock solution in dimethyl sulfoxide [Sigma] stored at −20° C.) in PBS for 15 min at 37° C. The cells were then washed twice in complete medium and used immediately for the cytotoxicity assay. The CFSE-labeled target cells (25,000 cells) were used at E (effector):T (target) ratios of 1:10. After 6 h incubation, the cells were stained with 0.25 μg/ml of 7-AAD and analyzed by flow cytometry.
Quantitative Real time RT-PCR. 5×10^5 IDH mutant and WT astrocytes, as well as patient glioma cells were lyzed in Trizol and RNA was extracted from the cells using the Chloroform extraction method. cDNA was transcribed from the RNA using iScript cDNA synthesis kit (BioRad). Real-time PCR was performed on an CFX96 Touch™ Real-Time PCR Detection System (Bio-Rad) equipped with a 96-well reaction plate. Briefly, 2 μL cDNA was added to 5 μL of the 2×SYBR Green PCR mastermix (Thermo Scientific), 800 nM of each primer, and water was added to 10 μL. The thermal denaturation protocol was run at the end of the PCR to determine the number of products that were present in the reaction. Reactions were typically run in triplicates. The cycle number at which the reaction crossed an arbitrarily-placed threshold (CT) was determined for each gene and the relative amount of each gene to 18 S rRNA was described using the equation 2^−ΔCT where ΔCT=(CTtargetRNA−CT18S rRNA).
RBP1 overexpression reverses immune evasion in IDH mutant gliomas. […] Cells were analyzed for NK cytotoxicity and gene expression of RA pathway genes. […]

[3] = retinol added to RBP1-transduced IDH mutant cells, to wild type expression levels

Row | Structure (SMILES) | toxicity in treated mice (weight loss and wasting) [1] | recognition and killing by NK cells ([2]; 10 μM retinol in medium of RBP1-transduced IDH mutant cells) | expression of NKG2D ligands (ULBP1, ULBP3) [2, 3] | expression of RA pathway genes [2, 3]
1 | C=C(c1ccc(C(=O)O)cc1)c1cc2c(cc1C)C(C)(C)CCC2(C)C [Bexarotene] | Higher levels of toxicity | – | – | –
2 | CC1=C(/C=C/C(C)=C/C=C/C(C)=C\C(=O)O)C(C)(C)CCC1 [13-cis RA, 13-cis retinoic acid] | Higher levels of toxicity | – | – | –
3 | CC1=C(/C=C/C(C)=C/C=C/C(C)=C/CO)C(C)(C)CCC1 [retinol] | – | significantly increased recognition and killing by NK cells | restored expression | restored expression
